Data reported in US11458114B2, “Methods and compositions for enhancing synthesis secretion and transport of collagen to increase wound strength” (NORTH CELL PHARMACEUTICALS, INC., priority 2020, dated 2022).
“Also recorded” adds a separate entry of the source. Like-named read-outs stand apart in the source and are kept apart here.

Key:
non-cancerous cells = assay: Viable non-cancerous cells after incubation with anticancer drugs in various media; type: cell-based; parameters: Percentage of viable cells, Drugs in commercial formula with SRF: concentration or dose not given beside the values
wounds = assay: Various drugs administered on wounds with or without sodium pyruvate or SRF: erythema rating and days to total re-epithelization; conditions: for Drug in commercial formula with SRF. Days to healing / Drug in commercial formula with sodium pyruvate only. Days to healing / Drug in commercial formula Days to healing: days to total re-epithelization
Description: (§1) All previous studies using pyruvate to treat wounds or be used as an antioxidant used only the sodium salt form of pyruvic acid. The drug products that were tested in previous studies used 1-3% sodium pyruvate and other sodium salts of alpha keto acids by weight 1-3% concentrations in the lotions and triple antibiotic formulations. […]

[1] = system: skin laser wounds in patients; assay: Salts of pyruvate and SRF on skin laser wounds in patients: healing and irritation; conditions: for irritation or toxicity: human, in vivo; for wound healing results: same concentration of pyruvate for each salt, compared with sodium pyruvate formulations or base
Description: as §1

[2] = Rating 1-10, 1 most erythema, 10 no erythema
[3] = Rating 1-10, 1 most erythema, 10 no erythema, drug alone

Row | Compound | Drug in commercial formula with SRF. Days to healing (wounds) [days] | Drug in commercial formula with sodium pyruvate only. Days to healing (wounds) [days] | Drug in commercial formula Days to healing (wounds; drug alone) [days] | Drugs in commercial formula with SRF erythema (wounds; [2]) | Drugs in commercial formula with sodium pyruvate only erythema (wounds; [2]) | Drugs in commercial formula erythema (wounds; [3]) | other results
1 | N.N.O=C([O-])C1(C(=O)[O-])CCC1.[Pt+2] [Carboplatin] | – | – | – | – | – | – | Percentage of viable cells, Drugs in commercial formula (non-cancerous cells): 50%; Percentage of viable cells, Drugs in commercial formula sodium pyruvate without SRF (non-cancerous cells): 56%; Percentage of viable cells, Drugs in commercial formula with SRF (non-cancerous cells): 87%; Percentage of viable cells after incubation with drugs (non-cancerous cells; drug): 42%; Percentage of viable cells, Drugs in commercial formula with SRF repeat study (non-cancerous cells; repeat study): 97%
2 | Clc1ccccc1C(c1ccccc1)(c1ccccc1)n1ccnc1 [Chlotrimizole] | 11 | 15 | 22 | – | – | – | Drugs in commercial formula erythema (wounds; in vivo): 4; Drugs in commercial formula with SRF erythema (wounds; in vivo): 8; Drugs in commercial formula with sodium pyruvate only erythema (wounds; in vivo): 6
3 | CC(=O)OCC(CCn1cnc2cnc(N)nc21)COC(C)=O [Famciclovir] | 12 | 14 | 17 | 7 | 6 | 5 | –
4 | Nc1nc2c(ncn2CCC(CO)CO)c(=O)[nH]1 [Penciclovir] | 12 | 16 | 17 | 8 | 7 | 7 | –
5 | CC1=C(/C=C/C(C)=C/C=C/C(C)=C/CO)C(C)(C)CCC1 [Retinol] | 9 | 15 | 19 | 7 | 3 | 1 | –
6 | CC(=O)C(=O)O.N [ammonium pyruvate] | – | – | – | – | – | – | irritation or toxicity [1]: irritating and possibly toxic; wound healing results [1]: slight increases in healing; also recorded: did not produce increases in healing over the base
7 | CC(C)(C#N)c1cc(Cn2cncn2)cc(C(C)(C)C#N)c1 [anastrozole] | – | – | – | – | – | – | Percentage of viable cells after incubation with drugs (non-cancerous cells): 24%; Percentage of viable cells, Drugs in commercial formula (non-cancerous cells): 25%; Percentage of viable cells, Drugs in commercial formula sodium pyruvate without SRF (non-cancerous cells): 50%; Percentage of viable cells, Drugs in commercial formula with SRF (non-cancerous cells): 86%; Percentage of viable cells, Drugs in commercial formula with SRF repeat study (non-cancerous cells): 94%
8 | CN(Cc1ccc(C(C)(C)C)cc1)Cc1cccc2ccccc12 [butenafine] | 16 | 18 | 21 | 5 | 4 | 3 | –
9 | Cc1cc(C2CCCCC2)n(O)c(=O)c1 [ciclopirox] | 9 | 11 | 20 | 9 | 5 | 4 | –
10 | Clc1ccc(COC(Cn2ccnc2)c2ccc(Cl)cc2Cl)cc1 (stereo not drawn) [econazole] | 14 | 17 | 19 | 6 | 6 | 6 | –
11 | CC[C@H]1OC(=O)[C@H](C)[C@@H](O[C@H]2C[C@@](C)(OC)[C@@H](O)[C@H](C)O2)[C@H](C)[C@@H](O[C@@H]2O[C@H](C)C[C@H](N(C)C)[C@H]2O)[C@](C)(O)C[C@@H](C)C(=O)[C@H](C)[C@@H](O)[C@]1(C)O [erythromycin] | 9 | 13 | 19 | 8 | 5 | 6 | –
12 | O=c1[nH]c(=O)n([C@H]2C[C@H](O)[C@@H](CO)O2)cc1F [floxuridine] | – | – | – | – | – | – | Percentage of viable cells after incubation with drugs (non-cancerous cells): 38%; Percentage of viable cells, Drugs in commercial formula (non-cancerous cells): 38%; Percentage of viable cells, Drugs in commercial formula sodium pyruvate without SRF (non-cancerous cells): 58%; Percentage of viable cells, Drugs in commercial formula with SRF (non-cancerous cells): 92%; Percentage of viable cells, Drugs in commercial formula with SRF repeat study (non-cancerous cells): 91%
13 | CC(=O)N1CCN(c2ccc(OCC3COC(Cn4ccnc4)(c4ccc(Cl)cc4Cl)O3)cc2)CC1 (stereo not drawn) [ketoconazole] | 14 | 20 | 23 | 8 | 6 | 3 | –
14 | CC(=O)C(=O)[O-].[Li+] [lithium pyruvate] | – | – | – | – | – | – | irritation or toxicity [1]: irritating and possibly toxic; wound healing results [1]: slight increases in healing; also recorded: did not produce increases in healing over the base
15 | NCc1ccc(S(N)(=O)=O)cc1 [mafenide] | 12 | 14 | 18 | 7 | 8 | 8 | –
16 | CN(Cc1cnc2nc(N)nc(N)c2n1)c1ccc(C(=O)N[C@@H](CCC(=O)O)C(=O)O)cc1 [methotrexate] | – | – | – | – | – | – | Percentage of viable cells, Drugs in commercial formula (non-cancerous cells): 43%; Percentage of viable cells, Drugs in commercial formula sodium pyruvate without SRF (non-cancerous cells): 68%; Percentage of viable cells, Drugs in commercial formula with SRF (non-cancerous cells): 94%; Percentage of viable cells after incubation with drugs (non-cancerous cells; drug): 42%; Percentage of viable cells, Drugs in commercial formula with SRF repeat study (non-cancerous cells; repeat study): 98%
17 | CN(C/C=C/c1ccccc1)Cc1cccc2ccccc12 [naftifine] | 13 | 14 | 20 | 7 | 6 | 3 | –
18 | C[C@@H]1[C@H](O)[C@@H](C)/C=C/C=C/CC/C=C/C=C/C=C/C=C/C(O[C@H]2O[C@H](C)[C@@H](O)[C@H](N)[C@@H]2O)CC2O[C@](O)(CC(O)C(O)CCC(O)CC(O)CC(O)CC(=O)O[C@H]1C)CC(O)C2C(=O)O (stereo partly drawn) [nystatin] | 12 | 14 | 17 | 8 | 6 | 2 | –
19 | O=C1[O][Pt]2([NH][C@@H]3CCCC[C@H]3[NH]2)[O]C1=O [oxaliplatin] | – | – | – | – | – | – | Percentage of viable cells, Drugs in commercial formula (non-cancerous cells): 24%; Percentage of viable cells, Drugs in commercial formula sodium pyruvate without SRF (non-cancerous cells): 41%; Percentage of viable cells, Drugs in commercial formula with SRF (non-cancerous cells): 95%; Percentage of viable cells after incubation with drugs (non-cancerous cells; drug): 23%; Percentage of viable cells, Drugs in commercial formula with SRF repeat study (non-cancerous cells; repeat study): 98%
20 | Clc1ccc(CO/N=C(\Cn2ccnc2)c2ccc(Cl)cc2Cl)c(Cl)c1 [oxiconazole] | 11 | 14 | 18 | 9 | 7 | 6 | –
21 | CC(=O)C(=O)[O-].[Na+] [sodium salt of pyruvic acid, sodium pyruvate] | – | – | – | – | – | – | irritation or toxicity [1]: no irritation; wound healing results [1]: enhanced healing
22 | Clc1ccc(CSC(Cn2ccnc2)c2ccc(Cl)cc2Cl)cc1 (stereo not drawn) [sulconazole] | 11 | 15 | 20 | 8 | 6 | 4 | –
23 | Cc1cccc(N(C)C(=S)Oc2ccc3ccccc3c2)c1 [tolnaftate] | 10 | 13 | 21 | 7 | 7 | 7 | –
24 | CC(C)[C@H](N)C(=O)OCCOCn1cnc2c(=O)[nH]c(N)nc21 [valaciclovir] | 14 | 17 | 18 | 8 | 8 | 8 | –
25 | Bevacizumab | – | – | – | – | – | – | Percentage of viable cells after incubation with drugs (non-cancerous cells): 21%; Percentage of viable cells, Drugs in commercial formula (non-cancerous cells): 27%; Percentage of viable cells, Drugs in commercial formula sodium pyruvate without SRF (non-cancerous cells): 40%; Percentage of viable cells, Drugs in commercial formula with SRF repeat study (non-cancerous cells): 87%
26 | Bleomycin | – | – | – | – | – | – | Percentage of viable cells, Drugs in commercial formula (non-cancerous cells): 33%; Percentage of viable cells, Drugs in commercial formula sodium pyruvate without SRF (non-cancerous cells): 47%; Percentage of viable cells, Drugs in commercial formula with SRF (non-cancerous cells): 98%; Percentage of viable cells after incubation with drugs (non-cancerous cells; drug): 31%; Percentage of viable cells, Drugs in commercial formula with SRF repeat study (non-cancerous cells; repeat study): 98%
27 | aluminum pyruvate | – | – | – | – | – | – | wound healing results [1]: slight increases in healing; also recorded: did not produce increases in healing over the base
28 | manganese pyruvate | – | – | – | – | – | – | wound healing results [1]: slight increases in healing; also recorded: did not produce increases in healing over the base
29 | microazole | 11 | 12 | 19 | – | – | – | Drugs in commercial formula erythema (wounds; in vivo): 5; Drugs in commercial formula with SRF erythema (wounds; in vivo): 7; Drugs in commercial formula with sodium pyruvate only erythema (wounds; in vivo): 6
